Test results taken from patent US5543425A, “Method of inhibiting platelet aggregation using phenyl amidine thio derivatives” (G. D. Searle & Co., priority 1994, dated 1996).

Test system: platelet aggregation in dog PRP
Test: In-Vitro Platelet Aggregation in PRP (collagen-induced)
Assay type: cell-based
Conditions: Canis lupus familiaris; for inhibition at 10 µM: Test Concentration 1 × 10^-5 (10 μM), dog PRP, collagen 33.3 μg/m final; for IC50: dog platelet-rich plasma, collagen-induced aggregation
Experimental: Compounds of the invention were evaluated by an in vitro assay to determine compound activity as an inhibitors of platelet aggregation.
In-Vitro Platelet Aggregation in PRP
Healthy male or female dogs were fasted for 8 hours prior to drawing blood; then 30 ml whole blood from jugular vein was collected using a butterfly needle and 30 ml plastic syringe with 3 ml of 0.129 M buffered sodium citrate (3.8%). The syringe was rotated carefully as blood was drawn to mix the citrate. The whole blood was transferred to a 50 ml Corning Conical sterile centrifuge tube. Platelet-rich plasma (PRP) was prepared by centrifugation at 975×g for 3.17 minutes at room temperature, allowing the centrifuge to coast to a stop without braking. The PRP was removed from the blood with a plastic pipette and placed in a plastic capped, 50 ml Corning conical sterile centrifuge tube which was held at room temperature. Platelet poor plasma (PPP) was prepared by centrifuging the remaining blood at 2000×g for 15 minutes at room temperature allowing the centrifuge to coast to a stop without braking. The PRP platelet count was typically a count of 2.5-4×10^8 platelets per ml. 400 μL of the PRP preparation and 50 μL of the compound to be tested or saline were preincubated for 2 minutes at 37° C. in a BioData aggregometer (BioData, Horsham, PA). 50 μL of Collagen (equine tendon, Chronolog, Hayertown, PA) [33.3 μg/m, final concentration] was added to the cuvettes and the aggregation was monitored for 4 minutes. All compounds are tested in duplicate. Inhibition of aggregation for each sample was determined using the formula: % of inhibition=100-% of control and % of control=(Tinh -Tbas)/(Tag -Tbas) ×100, where Tbas is % of light transmission in PRP (baseline), Tagg is % of light transmission in the aggregated PRP sample (saline control) and Tinh is % of light transmission in the sample containing the inhibitor.

Compound | inhibition at 10 µM [%] | IC50 [nM]
Cc1ccc(S(=O)(=O)CC(CC(=O)O)NC(=O)CCCCc2ccc(C(=N)N)cc2)cc1 (racemic) [(+)-3-[[5-[4-(aminoiminomethyl)phenyl]-1-oxopentyl]amino]-4-[[(4-methylphenyl)sulfonyl]butanoic acid] | 100 | 
CCOC(=O)CC(CC[S+]([O-])Cc1ccccc1)NC(=O)CCCCc1ccc(C(=N)N)cc1 (racemic) [(+)-ethyl 3-[[5-[4-aminoiminomethyl)phenyl]-1-oxopentyl]amino]-5-[(phenylmethyl)sulfinyl]pentanoate] | 100 | 420
N=C(N)c1ccc(CCCCC(=O)NC(CC(=O)O)CS(=O)(=O)c2ccccn2)cc1 (racemic) [(±)-3-[[5-[4-(aminoiminomethyl)phenyl]-1-oxopentyl]amino]-4-(2-pyridinylsulfonyl)butanoic acid] | 100 | 
N=C(N)c1ccc(CCCCC(=O)NC(CC(=O)O)CS(=O)(=O)c2ccccc2)cc1 (racemic) [(±)-3-[[5-[4-(aminoiminomethyl)phenyl]-1-oxopentyl]amino]-4-(phenylsulfonyl)butanoic acid] | 100 | 28
N=C(N)c1ccc(CCCCC(=O)NC(CSc2ccccc2)CC(=O)O)cc1 (racemic) [(±)-3-[[5-[4-(aminoiminomethyl)phenyl]-1-oxopentyl]amino]-4-(phenylthio) butanoic acid] | 100 | 500
N=C(N)c1ccc(CCCCC(=O)NC(CSc2ccc(F)cc2)CC(=O)O)cc1 (racemic) [(±)-3-[[5-[4-(aminoiminomethyl)phenyl]-1-oxopentyl]amino]-4-[(4-fluorophenyl)thio]butanoic acid] | 100 | 1800
COc1ccc(S(=O)(=O)CC(CC(=O)O)NC(=O)CCCCc2ccc(C(=N)N)cc2)cc1 (racemic) [(±)-3-[[5-[4-(aminoiminomethyl)phenyl]-1-oxopentyl]amino]-4-[(4-methoxyphenyl)sulfonyl]butanoic acid] | 100 | 130
N=C(N)c1ccc(CCCCC(=O)NC(CC(=O)O)C[S+]([O-])c2ccccc2)cc1 (racemic) [(±)-3-[[5-[4-(aminoiminomethyl)phenyl]-1-oxopentyl]amino]-4-[(phenylsulfinyl)butanoic acid] | 100 | 200
N=C(N)c1ccc(CCCCC(=O)NC(CC(=O)O)CS(=O)(=O)c2ccc(F)cc2)cc1 (racemic) [(±)-3-[[5-[4-(aminoiminomethyl)phenyl]-1-oxopentyl]amino]-4-[[(4-fluorophenyl)]sulfonyl]butanoic acid] | 100 | 120
C[S+]([O-])CCC(CC(=O)O)NC(=O)CCCCc1ccc(C(=N)N)cc1 (racemic) [(±)-3-[[5-[4-(aminoiminomethyl)phenyl]-1-oxopentyl]amino]-5-(methylsulfinyl) pentanoic acid] | 100 | 1500
CS(=O)(=O)CCC(CC(=O)O)NC(=O)CCCCc1ccc(C(=N)N)cc1 (racemic) [(±)-3-[[5-[4-(aminoiminomethyl)phenyl]-1-oxopentyl]amino]-5-(methylsulfonyl)pentanoic acid] | 100 | 700
CSCCC(CC(=O)O)NC(=O)CCCCc1ccc(C(=N)N)cc1 (racemic) [(±)-3-[[5-[4-(aminoiminomethyl)phenyl]-1-oxopentyl]amino]-5-(methylthio) pentanoic acid] | 100 | 1300
N=C(N)c1ccc(CCCCC(=O)NC(CC[S+]([O-])Cc2ccccc2)CC(=O)O)cc1 (racemic) [(±)-3-[[5-[4-(aminoiminomethyl)phenyl]-1-oxopentyl]amino]-5-[(phenylmethyl)sulfinyl]pentanoic acid] | 100 | 100
N=C(N)c1ccc(CCCCC(=O)NC(CCS(=O)(=O)Cc2ccccc2)CC(=O)O)cc1 (racemic) [(±)-3-[[5-[4-(aminoiminomethyl)phenyl]-1-oxopentyl]amino]-5[(phenylmethyl)sulfonyl]pentanoic acid] | 100 | 220
CCOC(=O)CC(C[S+]([O-])c1ccccc1)NC(=O)CCCCc1ccc(C(=N)N)cc1 (racemic) [(±)-ethyl 3-[[5-[4-(aminoiminomethyl)phenyl]-1-oxopentyl]amino]-4-(4-phenylsulfinyl)butanoate] | 0 | 
CCOC(=O)CC(CS(=O)(=O)c1ccccc1)NC(=O)CCCCc1ccc(C(=N)N)cc1 (racemic) [(±)-ethyl 3-[[5-[4-(aminoiminomethyl)phenyl]-1-oxopentyl]amino]-4-(phenylsulfonyl)butanoate] | 3 | 
CCOC(=O)CC(CSc1ccccc1)NC(=O)CCCCc1ccc(C(=N)N)cc1 (racemic) [(±)-ethyl 3-[[5-[[4-(aminoiminomethyl)phenyl]-1-oxopentyl]amino]-4-(4-phenylthio) butanoate] | 0 | 
CC(C)OC(=O)CC(CS(=O)(=O)c1ccccn1)NC(=O)CCCCc1ccc(C(=N)N)cc1 (stereo not drawn) [1-methylethyl 3S-[[5-[4-(aminoiminomethyl)phenyl]-1-oxopentyl]amino]-4-(2-pyridinylsulfonyl)butanoate] | 28 | 
Cc1ccc([S+]([O-])CCNC(=O)CCCCc2ccc(C(=N)N)cc2)cc1 (centres unmarked) [4-(aminoiminomethyl)-N-[2-[(4-methylphenyl)sulfinyl]ethylbenzenepentanamide] | 0 | 
Cc1ccc(S(=O)(=O)CCNC(=O)CCCCc2ccc(C(=N)N)cc2)cc1 [4-(aminoiminomethyl)-N-[2-[(4-methylphenyl)sulfonyl]ethylbenzenepentanamide] | 23 | 
